Measurements published in US12084523B2, “Ubiquitin high affinity cyclic peptides and methods of use thereof” (TECHNION RESEARCH & DEVELOPMENT FOUNDATION LIMITED, priority 2018, dated 2024).

Legend:
[1] = system: Ub-conjugates in HeLa cells; experiment: Western blot of cellular Ub-conjugates; type: cell-based, human
Experimental: (§1) FIGS. 5A-5F are images and graphs showing the uptake of Ub4ix by living cells and its cellular effect. (5A) is an image of the structure of fluorescein-5-maleimide-Ub4ix. (5B) is micrographs of HeLa cells incubated in the presence of DMSO (Negative control) or fluorescein-5-maleimide-Ub4ix cyclic peptide (20 μM). Internalization of the peptide into the cells was monitored at the indicated time points. Ub4ix induced the accumulation of Ub-conjugates, as a result of proteolysis inhibition. (5C) is an image of a western blot analysis of ubiquitinated proteins from HeLa cells which were incubated in the presence of Ub4ix, fluorescein-5-maleimide-Ub4ix, or MG132 for the indicated time-periods. Cells were lysed, resolved using SDS-PAGE, proteins were transferred to a nitrocellulose membrane, and the membrane was blotted using an antibody against Ub-conjugates (Ub conj), and Actin. (5D) is a graph of radio-labeled proteins from HeLa cells which were labeled with radioactive S-Met and S-Cys and were then chased for 4 hours in “cold” media. Cells were either non-treated (Control), or incubated in the presence of DMSO, Ub4ix, or MG132, at the indicated concentrations. Radioactivity levels, resulting from protein breakdown during the chase phase, were measured using a scintillation counter. […]

[2] = system: cellular protein breakdown in HeLa cells; experiment: Radioactive pulse and chase, degradation-inhibition assay; type: cell-based, human; conditions: 4 h chase, vs non-treated or DMSO
Experimental: Radioactive Pulse and Chase
For degradation-inhibition assays, cells were labeled with ^35S-methionine and cysteine (20 μCi) for 16 hours, followed by a chase in cold medium for 4 hours, in the presence of DMSO, proteasome inhibitor MG132, or Ub4ix. Media were then collected, and amino acids were extracted using TCA precipitation. Radioactive readings were measured using a scintillation counter.
In order to directly measure the effect of Ub4ix on proteolysis, the inventors employed radiolabeling of cellular proteins, followed by a chase experiment in the presence of either Ub4ix or the proteasome inhibitor MG132. […] The inventors validated this inhibitory effect on protein breakdown with known proteasomal substrates, the proteins p53, and p27, bona fide substrates of the UPS.

[3] = system: HeLa cells; experiment: Annexin V-FITC FACS apoptosis analysis; type: cell-based, human; conditions: 10 μM, 24 h and 48 h
Experimental: Fluorescence-Activated Cell Sorting (FACS) Analysis
Induction of apoptosis in Hela cells by treatment with cyclic peptides were determined after 24 and 48 hours incubation in a dose dependent manner, using annexin V-FITC apoptosis detection kit (BD Biosciences) according to the manufacturer s protocol. Two (2)×10^5 cells/well were seeded in 6-well plates and treated with an inhibitor for 24/48 hours in a dose dependent manner. The increase in fluorescence, which indicates the apoptosis level in the treated cells, were monitored using flow cytometry and compared to untreated cells containing DMSO as a negative control and MG132 as a positive control.
Given that Ub4ix has a pronounced inhibitory effect on the UPS system, the inventors further wanted to examine whether it inhibit cell growth and induce apoptosis in cancer cells. […] The effects of the cyclic peptides on apoptosis were evaluated using FACS analysis.

[4] = system: HeLa cells; type: cell-based, human; conditions: MTT
Experimental: Cell Viability Assays and Kinetic Experiments In order to assess the effect of the cyclic peptides on Hela cells, toxicity was determined using the MTT assay. Equal amounts of cells (8,000 cells/well) were plated in 96-well plates in triplicate. After 24 hours, attached cells were exposed to increasing concentrations of the cyclic peptides for another 24 hours. […] Optical density was recorded at 590 nm with a reference measurement at 630 nm.

[5] = system: p53 and p27 in HeLa cells; experiment: Western blot of proteasomal substrates p53 and p27; type: cell-based, human
Experimental: as §1

[6] = system: protein synthesis in HeLa cells; experiment: Radioactive pulse assay of protein synthesis; type: cell-based, human; conditions: 35S-Met/Cys incorporation
Experimental: HeLa cells were incubated with either DMSO, ribosomal inhibitor cycloheximide (CHX), or Ub4ix. After 4 hours, media were replaced with media containing radioactive Methionine and Cysteine, and cells where pulsed for 4 hours. Cells were thoroughly washed, proteins were extracted from the cells, and the radioactive readings of each sample were measured using a scintillation counter, indicating the extent of incorporation of radiolabeled Methionine and Cysteine into newly synthesized proteins.
For the assay of inhibitions of protein synthesis, cells were incubated with DMSO, ribosomal inhibitor cycloheximide (CHX), or Ub4ix. After 4 hours, media were replaced with medium containing ^35S-methionine and cysteine (20 μCi) and cells where pulsed for 4 hours. Plates were extensively washed with ice-cold PBS and proteins were extracted from cells using trichloroacetic acid (TCA) precipitation. The radioactive readings were measured using a scintillation counter.

[7] = system: USP2; experiment: In vitro deubiquitination assay, USP2 with K48-linked tetra-Ub; type: biochemical; conditions: tetra-Ub chain, after removal of the distal Ub (tri-Ub)
Experimental: (§2) In Vitro Deubiquitination Assay
(§3) In vitro deubiquitination reactions were performed in a Tris buffer (50 mM TRIS, 1 mM TCEP, pH 7.7), containing 2 μM ^K48Ub2/4, then the specific DUB (50 mM Tris, 0.5 mM EDTA, 1 mM TCEP and 0.5 mg/ml ovalbumin, pH 7.5) was added. The reaction mixtures were incubated at 37° C. and at the indicated time points the reactions were stopped by taking aliquots and mixed them with 3× sample buffer and boiling. The same amounts were loaded on 14% SDS-PAGE, electro-blotted to nitrocellulose membrane and probed with an anti-Ub antibody. Bands were quantified with Image Quant LAS 4000 (GE Healthcare).
(§4) The inventors further chose to examine the effect of these cyclic peptides on two DUBs: OTUB1, a K48-linkage chain specific DUB, and USP2, which cleaves most Ub chains without specificity, using K48-linked di- and tetra-Ub chains as substrates.

[8] = system: 26S proteasome; experiment: In vitro proteasome degradation assay of HA-α-globin-K48-linked tetra-Ub; type: biochemical; conditions: 5.3 μM peptide
[9] = target: T1, ^K48Ub4 (Homo sapiens, UniProt P0CG47); experiment: SPR binding of cyclic peptides to K48-linked tetra-ubiquitin; conditions: SPR, target ^K48Ub4
T1 construct: solid phase peptide synthesis of Ub monomers (modified as required); made in house
Experimental: Surface Plasmon Resonance (SPR)
The interactions between cyclic peptides: U2i, U2ii, U4i, U4ix and Ub1, ^K48Ub2 and ^K48Ub4, were determined using BIACORE T100 instrument (GE healthcare) equipped with a biotin CAPture kit Series S chip. The buffer in all experiments contained 50 mM HEPES, pH 7.3, 150 mM NaCl, 0.05% Tween20, 2 mM DTT with 0.2% DMSO. Biotinylated Ub1, ^K48Ub2 and ^K48Ub4 were loaded to approximately equal molar amounts on the SPR chip, and various concentrations of cyclic peptides were flowed over at […] for 120 sec, before initiation of dissociation by flowing buffer over at […] for further 700 sec. Traces were fit to the simplest, two-state model for binding. Association was fit to a single exponential assuming pseudo-first order conditions, whereas the dissociation trace was fit to single exponential plus a drift term. Finally, due to the poor quality of the traces for U4ix binding ^K48Ub2, the amplitude of the association kinetic trace at different concentrations of peptide was fit to estimate the lower bound for KD.
Each peptide was flowed over Ub1, ^K48Ub2 and […] immobilized on SPR chips. There was no detectable binding to Ub1 for any of the peptides, as expected, as Ub1 binding was explicitly selected against during the RaPID protocol. […] However, Ub2i and Ub2ii also strongly bound ^K48Ub4, with a low apparent KD and an increased SPR response (FIG. 1E). This was consistent with a higher stoichiometry of binding to the tetramer, which could be explained by additional binding sites in ^K48Ub4. Indeed, the ^K48Ub2 structure can be superimposed twice on the ^K48Ub4 crystal structure (FIG. 10). […] However, similar to Ub2i and Ub2ii, Ub4i also bound ^K48Ub2. This was perhaps unsurprising, given the high sequence identity between Ub4i and Ub2i.

[10] = system: USP2; experiment: In vitro deubiquitination assay, USP2 with K48-linked di-Ub; type: biochemical; conditions: di-Ub as the substrate
Experimental: as §2, §3, §4

CC[C@H](C)[C@@H]1NC(=O)[C@H](Cc2c[nH]c3ccccc23)NC(=O)[C@H](Cc2c[nH]c3ccccc23)NC(=O)[C@H](CC(=O)O)NC(=O)CNC(=O)[C@H](CO)NC(=O)[C@H](CC(=O)O)NC(=O)[C@H](CC(=O)O)NC(=O)[C@H](CC(C)C)NC(=O)[C@H](Cc2ccc(O)cc2)NC(=O)[C@H](CC(C)C)NC(=O)[C@@H](Cc2c[nH]c3ccccc23)NC(=O)CSC[C@@H](C(=O)NCC(N)=O)NC1=O [Ub4ix]
cellular level of Ub-conjugates [1]: elevation in Ub-conjugates | protein breakdown [2]: markedly reduced | apoptosis [3]: clear increase in apoptosis | suppression of cell growth [4]: most effective | p53 and p27 levels [5]: accumulated over time | effect on protein synthesis [6]: does not interfere with protein synthesis | inhibition of USP2 [7]: strong inhibition | inhibition of proteasomal degradation of α-globin-K48-linked tetra-Ub [8]: clear inhibition | koff [9]: 0.021 s⁻¹ | kon [9]: 3.52e+06 M⁻¹ s⁻¹ | inhibition of USP2 [10]: minimal inhibition
